Consider eight compounds from patent US12195460B2, “Pyrido-[3,4-d]pyridazine amine derivatives useful as NLRP3 inhibitors” (Ventus Therapeutics U.S., Inc., priority 2022, dated 2025).

Each structure is given as a SMILES string.

The data set is described as follows: Brain levels (Kp and Kpu,u) in mice after oral administration. The note with it: 20 mpk PO; for kpu, u: kp corrected with mouse plasma protein binding and mouse brain homogenate binding; for Kp at 24 h: CDI, mouse, 20 mg/kg, whole brain AUC over 24 h divided by plasma AUC. The class given is in vivo, CDI mice. Here is the method: Brain Levels (Kp and Kpu,u)—NLRP3
The in vivo total brain to plasma ratio was assessed in CDI mice after oral administration of the compound. Blood was collected at several timepoints up to 24 h, and transferred into plastic micro centrifuge tubes with EDTA-K2 as anticoagulant. Blood samples were centrifuged at 4000 g for 5 minutes at 4° C. to obtain plasma, then immediately frozen and stored at −75±15° C. prior to analysis. Animals were terminally anaesthetized with a rising concentration of CO2 gas at about 1 minute. At selected timepoints, whole brains were removed from the skull, rinsed in cold PBS to remove blood, dried with clean gauze, then frozen in liquid nitrogen and kept at −75±15° C. before analysis. At the time of analysis, brain samples were homogenized with PBS by tissue weight (g) to PBS volume (mL) ratio 1:3. Plasma and brain drug levels were quantified by LC/MS/MS on a AB Sciex Triple Quad 5500+ instrument, after separation on a HALO 160A ES-C18, 2.7 μm 2.1×50 mm column. Quantitation was performed using a calibration curve prepared in blank plasma or blank brain homogenate. The software WinNonlin (Phoenix™) was used for pharmacokinetic analysis from the concentrations versus time data, including the AUCinf and AUClast. The Kp ratio (total brain concentration over total plasma concentration) was calculated as (AUCtot,hr)/(AUCtot,pl).
The unbound brain exposure was assessed as Kpuu, which is the free brain/free plasma concentration ratio (Cu,hr/Cu,pl). The Cu,bt/Cu,pl ratios were obtained from in vivo total brain to plasma ratios (Ctot,br/Ctot,pl) by using in vitro determined Fu,br and Fu,pl.
Plasma protein binding and brain homogenate protein binding were measured by equilibrium dialysis in a HTDialysis plate. The dialysis membranes were soaked in ultrapure water for 60 minutes to separate strips, then in 20% ethanol for 20 minutes, finally in dialysis buffer for 20 minutes. The dialysis set up was assembled according to the manufacturer's instruction. Each cell received 150 μL of plasma or brain homogenate spiked with 1 μM of compound, and dialyzed against an equal volume of dialysis buffer (PBS). The dialysis plate was sealed and incubated in an incubator at 37° C. with 5% CO2 at 100 rpm for 6 hours. At the end of incubation, compound concentration was measured in both chambers by LC-MS/MS on a Triple Quad™ 5500 from AB Inc after separation on a XSelect Hss T3 2.5μ (2.1×30 mm) column. Free fraction (Fu) was calculated as (Peak Area Ratio buffer chamber/Peak Area Ratio plasma chamber).
Finally, Kpuu was calculated as (AUCtot,br×Fu,bt)/(AUCtot,pl×Fu,pl).
Table 3 assigns each compound a code for kp and kpu,u values: A or B. According to the code, A represents a value of >0.3 and B represents a value of <0.3. […] The kpu,u was then calculated upon correcting this kp value with mouse plasma protein binding and mouse brain homogenates binding.

Take `OCC1(CNc2nnc(-c3ccc(Cl)cc3O)c3ccncc23)CC1` [Compound 8, 5-chloro-2-(4-(((1-(hydroxymethyl)cyclopropyl)methyl)amino)pyrido[3,4-d]pyridazin-1-yl)phenol, reference compound]: the “kpu, u” value is listed as “B (B represents a value of <0.3)” and the Kp at 24 h was under 0.3.

Take `[2H]C([2H])([2H])OC(C)(C)CNc1nnc(-c2ccc(C(F)F)cc2O)c2ccncc12` [Compound 2, 5-(difluoromethyl)-2-(4-((2-(methoxy-d3)-2-methylpropyl)amino)pyrido[3,4-d]pyridazin-1-yl)phenol]: the “kpu, u” value was “A (A represents a value of >0.3)” and the Kp at 24 h is over 0.3.

In the case of `CC1(C)C[C@@H](Nc2nnc(-c3ccc(Cl)cc3O)c3ccncc23)CCO1` [Compound 4, (S)-5-chloro-2-(4-((2,2-dimethyltetrahydro-2H-pyran-4-yl)amino)pyrido[3,4-d]pyridazin-1-yl)phenol], the “kpu, u” value was “A (A represents a value of >0.3)”.

Take `CC1(C)COCC[C@H]1Nc1nnc(-c2ccc(Cl)cc2O)c2ccncc12` [Compound 3, (R)-5-chloro-2-(4-((3,3-dimethyltetrahydro-2H-pyran-4-yl)amino)pyrido[3,4-d]pyridazin-1-yl)phenol]: the “kpu, u” value is listed as “A (A represents a value of >0.3)” and the Kp at 24 h is over 0.3.

Consider `Cc1ccc(-c2nnc(N[C@H]3COC(C)(C)C3)c3cnccc23)c(O)c1` [Compound 5, (R)-2-(4-((5,5-dimethyltetrahydrofuran-3-yl)amino)pyrido[3,4-d]pyridazin-1-yl)-5-methylphenol], for which the “kpu, u” value was “A (A represents a value of >0.3)” and the Kp at 24 h was over 0.3.

Turning to `CC1(C)COC[C@@H]1Nc1nnc(-c2ccc(Cl)cc2O)c2ccncc12` [Compound 1, (R)-5-chloro-2-(4-((4,4-dimethyltetrahydrofuran-3-yl)amino)pyrido[3,4-d]pyridazin-1-yl)phenol], the “kpu, u” value is listed as “A (A represents a value of >0.3)”.

As to `Oc1cc(Cl)ccc1-c1nnc(N[C@H]2CCOC2)c2cnccc12` [Compound 7, (S)-5-chloro-2-(4-((tetrahydrofuran-3-yl)amino)pyrido[3,4-d]pyridazin-1-yl)phenol, reference compound], the “kpu, u” value was “B (B represents a value of <0.3)”.

For `CN1CCO[C@@H](CNc2nnc(-c3ccc(C(F)(F)F)cc3O)c3ccncc23)C1` [Compound 6, (S)-2-(4-(((4-methylmorpholin-2-yl)methyl)amino)pyrido[3,4-d]pyridazin-1-yl)-5-(trifluoromethyl)phenol], the “kpu, u” value is reported as “A (A represents a value of >0.3)”.
